Measurements reported in the supplement of paper PMC10307832.

Assays:
Assay in all cases: relative viability (nuclei count vs DMSO), 5 days (fraction); higher = more cells survive
4EGI-1 + Palbociclib = compound: O=C(O)C(Cc1ccccc1[N+](=O)[O-])=NNc1nc(-c2ccc(Cl)c(Cl)c2)cs1 (mixture of isomers) [4EGI-1] + CC(=O)c1c(C)c2cnc(Nc3ccc(N4CCNCC4)cn3)nc2n(C2CCCC2)c1=O [Palbociclib] (partner 0.5 µM)
Procedure, shortened: (§1)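 Relative viability was taken as the ratio of nuclei in treated wells to nuclei in vehicle wells. Lung cancer cell lines in 1536-well plates received compounds by pin tool one day after seeding, either one drug alone or a fixed anchor-drug dose plus five library-drug doses (not always all listed) in √10 steps. Nuclei were counted on 4× images after 5 days of treatment, and values are medians of duplicate plates.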

XMD8-85 + Palbociclib = compound: CN1CCN(CC1)C2=CC(=C(C=C2)NC3=NC=C4C(=N3)N(C5=CC=CC=C5C(=O)N4C)C)OC [XMD8-85] + CC(=O)c1c(C)c2cnc(Nc3ccc(N4CCNCC4)cn3)nc2n(C2CCCC2)c1=O [Palbociclib] (partner 0.5 µM)
Procedure, shortened: as §1

4EGI-1 + Olaparib = compound: O=C(O)C(Cc1ccccc1[N+](=O)[O-])=NNc1nc(-c2ccc(Cl)c(Cl)c2)cs1 (mixture of isomers) [4EGI-1] + O=C(c1cc(Cc2n[nH]c(=O)c3ccccc23)ccc1F)N1CCN(C(=O)C2CC2)CC1 [Olaparib] (partner 8 µM)
Procedure, shortened: as §1

4EGI-1 + Pictilisib = compound: O=C(O)C(Cc1ccccc1[N+](=O)[O-])=NNc1nc(-c2ccc(Cl)c(Cl)c2)cs1 (mixture of isomers) [4EGI-1] + CS(=O)(=O)N1CCN(Cc2cc3nc(-c4cccc5[nH]ncc45)nc(N4CCOCC4)c3s2)CC1 [Pictilisib] (partner 1 µM)
Procedure, shortened: as §1

Cell Line | relative viability (4EGI-1 + Palbociclib; first compound 0.5 µM) | relative viability (4EGI-1 + Palbociclib; first compound 5 µM) | relative viability (4EGI-1 + Palbociclib; first compound 15.81 µM) | relative viability (4EGI-1 + Palbociclib; first compound 50 µM) | relative viability (XMD8-85 + Palbociclib; first compound 0.08 µM) | relative viability (XMD8-85 + Palbociclib; first compound 0.253 µM) | relative viability (XMD8-85 + Palbociclib; first compound 0.8 µM) | relative viability (XMD8-85 + Palbociclib; first compound 2.53 µM) | relative viability (XMD8-85 + Palbociclib; first compound 8 µM) | relative viability (4EGI-1 + Olaparib; first compound 0.5 µM) | relative viability (4EGI-1 + Olaparib; first compound 5 µM) | relative viability (4EGI-1 + Olaparib; first compound 15.81 µM) | relative viability (4EGI-1 + Olaparib; first compound 50 µM) | relative viability (4EGI-1 + Pictilisib; first compound 0.5 µM) | relative viability (4EGI-1 + Pictilisib; first compound 1.581 µM) | relative viability (4EGI-1 + Pictilisib; first compound 5 µM) | relative viability (4EGI-1 + Pictilisib; first compound 15.81 µM) | relative viability (4EGI-1 + Pictilisib; first compound 50 µM) | relative viability (4EGI-1 + Palbociclib; first compound 1.581 µM) | relative viability (4EGI-1 + Olaparib; first compound 1.581 µM)
A-427 | 0.543 | 0.535 | 0.492 | 0.319 | 0.521 | 0.544 | 0.571 | 0.52 | 0.463 | 0.777 | 0.766 | 0.643 | 0.276 | 0.855 | 0.409 | 0.705 | 0.589 | 0.364 | – | –
NCI-H441 | 0.283 | 0.23 | 0.185 | 0.146 | 0.206 | 0.209 | 0.197 | 0.195 | 0.2 | 0.654 | 0.597 | 0.315 | 0.192 | 0.517 | 0.414 | 0.455 | 0.447 | 0.19 | 0.2 | 0.425
PC-3 [JPC-3] | 0.472 | 0.573 | 0.472 | 0.458 | 0.489 | 0.539 | 0.551 | 0.583 | 0.564 | 1.16 | 1.17 | 0.526 | 0.484 | 0.772 | 0.826 | 0.706 | – | 0.458 | – | –
NCI-H1915 | 0.562 | 0.517 | 0.477 | 0.404 | 0.721 | 0.529 | 0.537 | 0.549 | 0.371 | 0.261 | 0.275 | 0.207 | 0.152 | 0.943 | 0.558 | 1.03 | 0.933 | 0.66 | 0.369 | 0.207
HCC-44 | 1 | 0.907 | 0.862 | 0.681 | 0.993 | 1.06 | 1.08 | 0.993 | 0.946 | 0.959 | 0.953 | 0.934 | 0.752 | 0.75 | 0.515 | 0.653 | 0.527 | 0.299 | 0.813 | 0.829
NCI-H522 | 1.07 | 1.2 | 1.08 | 0.953 | 1.09 | 1.03 | 0.822 | 0.737 | 0.648 | 0.694 | 0.617 | 0.574 | 0.471 | – | – | – | – | – | 0.822 | 0.776
EBC-1 | – | – | – | – | – | – | – | – | – | 0.808 | 0.765 | 0.506 | 0.237 | 0.519 | 0.405 | 0.416 | 0.269 | 0.19 | – | 0.755
NCI-H1299 | – | – | – | – | – | – | – | – | – | 1.01 | 0.942 | 0.863 | 0.317 | 0.863 | 0.824 | 1.03 | 0.732 | 0.163 | – | 0.95
Calu-6 | – | – | – | – | – | – | – | – | – | 0.559 | 0.627 | 0.464 | 0.332 | 0.969 | 0.937 | 0.825 | 0.79 | 0.198 | – | 0.5
NCI-H1563 | – | – | – | – | – | – | – | – | – | – | – | – | – | 0.637 | 0.662 | 0.622 | 0.662 | 0.521 | – | –
A549 | – | – | – | – | – | – | – | – | – | 0.495 | 0.306 | 0.355 | 0.301 | 0.456 | 0.454 | 0.603 | 0.433 | 0.0907 | – | –
